Patent US11548925B2, “CACNA1H-derived tumor antigen polypeptide and use thereof” (Genoimmune Therapeutics Co., Ltd., priority 2016, dated 2023)

What was measured:
[1] = system: H2087-TLISSLMPI (SEQ ID NO: 2) subcutaneous tumor; assay: DC vaccine infected with recombinant lentivirus containing peptide gene in H2087-[…] tumor model; type: in vivo, NOD/SCID mice; conditions: DC infected with lentivirus carrying peptide gene, 2 injections
From the text: The following DNA sequences were synthesized: “[…]” (SEQ ID NO: 8), encoding the wild-type peptide […] (SEQ ID NO: 1); “[…]” (SEQ ID NO: 9), encoding the mutant peptide […] (SEQ ID NO: 2); “[…]” (SEQ ID NO: 10), encoding the SEQ ID NO: 2 […]'s variant peptide […] (SEQ ID NO: 3); “[…]” (SEQ ID NO: 11), encoding the SEQ ID NO: 2 […]'s variant peptide […] (SEQ ID NO: 4); “[…]” (SEQ ID NO: 12), encoding the SEQ ID NO: 2 […]'s variant peptide […] (SEQ ID NO: 5); “[…]” (SEQ ID NO: 13), encoding the SEQ ID NO: 2 […]'s variant peptide […] (SEQ ID NO: 6); and “[…]” (SEQ ID NO: 14), encoding the SEQ ID NO: 2_[…]'s variant peptide […] (SEQ ID NO: 7). The wild-type peptide […] (SEQ ID NO: 1), the mutant peptide […] (SEQ ID NO: 2) and the mutant peptide SEQ ID NO: 2 […]'s variant peptides were constructed into the lentiviral vector pHBLV-Puro, respectively, to name as pHBLV-Puro-[…] (SEQ ID NO: 1), pHBLV-Puro-[…] (SEQ ID NO: 2), pHBLV-Puro-[…] (SEQ ID NO: 3), pHBLV-Puro-[…] (SEQ ID NO: 4), pHBLV-Puro-[…] (SEQ ID NO: 5), pHBLV-Puro-[…] (SEQ ID NO: 6) and pHBLV-Puro-[…] (SEQ ID NO: 7), respectively. The seven lentiviral constructs were co-transfected into 293T cells with helper plasmids pSPAX2 and pMD2G for packaging, and lentiviruses of the wild-type peptide […] (SEQ ID NO: 1), the mutant peptide […] (SEQ ID NO: 2) and the mutant peptide's variant peptides were obtained.
600-900 ml of anticoagulated peripheral blood was collected from healthy volunteers for isolating peripheral blood mononuclear cells (PBMCs) via Ficoll. Cells were collected for use. 2×10^7 PBMCs per 0.5 ml was intraperitoneally injected into each of 300 NOD SCID mice without immune leakage to perform human immune reconstitution in NOD SCID mice. […]
The human non-small cell lung adenocarcinoma cell line H2087-[…] […] The long diameter a and the short diameter b of the tumor were measured with a vernier caliper every 2-3 days and the size of the tumor was calculated as a*b*b/2. The mice and tumors were weighed and recorded every day. […] The tumor volume and the survival rate of mice were recorded every 2 days. […]

CD8+ T cells [2] = assay: ELISPOTs detection of IFN-γ secretion by peptide-specific CD8+ T cells; type: cell-based, human; conditions: for Conclusion (immunogenicity): ELISPOTs; for Number of spots in the mutant peptide group / Number of spots in the wild-type peptide group: T cells activated by the listed peptide, 20 h; for Number of spots in the mutant peptide group: T2 cells loaded with TLISSLMPI; for Number of spots in the wild-type peptide group: T2 cells loaded with TLISSLRPI
From the text: In this example, a ELISPOTs detection kit (Cat. No.: 3420-4AST-10, MABTECH) was used to verify the activation of an immune response of CD8+ T cells by the peptides of the present invention.
Principle of the ELISPOTs detection method is as follows: CD8+ T cells can specifically recognize the complex of HLA-A0201 and a peptide. The population of T cells recognizing the complex of the peptide and HLA-A0201 is varying, depending on the peptide sequence. Since T2 cells express HLA-A0201, CD8+ T cells can specifically recognize the T2 cells loaded with a peptide. After specific recognition of the complex of HLA-A0201 and the peptide, peptide-specific CD8+ T cells can be activated again to secrete IFN-γ interferon. The IFN-γ interferon secreted by the activated CD8+ T cells can be captured by antibodies on the ELISPOTs plate. Finally, the enzyme-conjugated antibody that recognizes IFN-γ can degrade the substrate through the enzyme conjugated thereto and develop color, eventually producing spots. The number of spots represents the number of cells that are activated to secrete IFN-γ interferon.
The cultured cells from Example 3 were added, along with T2 cells loaded with the mutant peptide […] (SEQ ID NO: 2) of the present invention and the wild-type peptide […] (SEQ ID NO: 1), respectively, into ELISPOTs plates, and cultured for 20 h, and then a ELISPOTs detection was performed (see the kit instruction). Finally, the spots produced by the ELISPOTs detection were counted.
The peptide was determined to have immunogenicity when the number of spots of the tested peptide/the number of spots of an unrelated peptide>2; that is, if the number of spots caused by the tested peptide is more than twice than that of an unrelated peptide, the tested peptide is determined to have immunogenicity.

T2 cells = assay: LDH release assay, killing of peptide-loaded T2 target cells by CD8+ T cells; type: cell-based, human; conditions: 4 h
Procedure: The cells cultured in Example 3 were co-cultured with T2 cells loaded with the mutant peptides of the present invention or the wild-type peptide or without a peptide. A maximum release well, a volume correction well, a medium control well, a spontaneous release well and control wells for example at different effector-to-target ratios (ratios of T cells to T2 cells) were set in this experiment. Three replicate wells were set for each group. After 4 h, 50 μl of the co-culture supernatant was taken out and added to 50 μl of LDH substrate mixture to catalyze the reaction of LDH substrate. Finally, the plates were read at a wavelength of 490 nm, with a reference wavelength of 680 nm, and the killing activity against target cells T2 was calculated based on the control wells.
The formula for calculating the killing activity is: Killing efficiency (%)=(test well−spontaneous release of effector cells−spontaneous release of target cells+medium well)/(maximum release of target cells−volume correction well−spontaneous release of target cells+medium well)×100%

CD8+ T cells [3] = assay: ELISPOTs detection of IFN-γ secretion by peptide-specific CD8+ T cells; type: cell-based, human; conditions: ratio of spot numbers; >2 immunogenic
[4] = effector-to-target ratio 1:1, target T2 loaded with TLISSLMPI
[5] = effector-to-target ratio 1:1, target T2 loaded with wild-type TLISSLRPI
[6] = effector-to-target ratio 10:1, target T2 loaded with TLISSLMPI
[7] = effector-to-target ratio 10:1, target T2 loaded with wild-type TLISSLRPI

Sequence	Tumor-suppressing effect [1]	Conclusion (immunogenicity) (CD8+ T cells [2])	Number of spots in the mutant peptide group (CD8+ T cells [2])	Number of spots in the wild-type peptide group (CD8+ T cells [2])	Killing efficiency (T2 cells; [4])	Killing efficiency (T2 cells; [5])	Killing efficiency (T2 cells; [6])	Killing efficiency (T2 cells; [7])	Fold (tested/wild-type) (CD8+ T cells [3])
TLISSLRPI [wild-type CACNA1H peptide used as comparison, reference compound]	no effect on this tumor	–	–	–	–	–	–	–	–
TLISSLMPL	–	immunogenic	317	37	8.23%	3.12%	39.66%	5.71%	8.57
TMISSLMPI	–	immunogenic	321	27	8.33%	2.85%	41.16%	5.13%	11.88
TLISSLMPV	–	immunogenic	325	41	8.56%	2.57%	43.82%	4.73%	7.93
TMISSLMPV	–	immunogenic	345	35	9.32%	3.51%	47.35%	6.31%	9.86
TMISSLMPL	–	immunogenic	338	39	9.12%	3.13%	45.23%	5.83%	8.67
